Laboratory results as given in patent publication US9956204B2, “Composition for exterminating scuticociliates in fish including mebendazole” (NATIONAL INSTITUTE OF FISHERIES SCIENCE, priority 2016, dated 2018).

What was measured:
scuticociliates [1] = assay: Scuticociliates extermination effect of candidate substances in seawater medium; assay type: cell-based; conditions: seawater medium, 4 hour
Description: For this, scuticociliates were cultured in CHSE-214 cell line (using MEM medium), and then scuticociliates were collected and centrifuged with sterilized seawater or artificial seawater (20‰) to replace them with a seawater medium. Each of 100 μl (1×10^5) was dispensed into each well of 96 wells, followed by further culture for 30 minutes. The candidate substances diluted in seawater to have a volume of 100 μl per each concentration were mixed with scuticociliates to have the final volume of 200 μl and cultured for 4 hour.

scuticociliates [2] = assay: Scuticociliates extermination effect of candidate substances in MEM medium; assay type: cell-based; conditions: MEM medium
Description: CHSE-214 cell line into which scuticociliates were inoculated was cultured in advance. The CHSE-214 cell line was cultured in an incubator using an MEM medium at 22° C. Scuticociliates inoculated into the cell line proliferated for 3 days by which the number reaches to be capable of analyzing in vitro anti-scuticociliates effect. Scuticociliates that feed on the cell line and sufficiently grow were mixed with the candidate substance and the activity of scuticociliates was measured.
In order to analyze the antiparasitic activity of the above 19 types of candidate substances of scuticociliates extermination drugs, scuticociliates were cultured for 3 days, and 100 μl (1×10^5) was dispensed into each well of 96 wells. The candidate substances were diluted by each concentration and the final volume was dispensed into 100 μl. Thereafter, the two were mixed and finally made into 200 μl.

Row | SMILES | Survival or Death of scuticociliates (activity and shape, microscope) (scuticociliates [1]; Dosage 500 ppm) | Survival or Death of scuticociliates (activity and shape, microscope) (scuticociliates [1]; Dosage 1000 ppm) | Survival or Death of scuticociliates (activity and shape, microscope) (scuticociliates [1]; Dosage 1500 ppm) | Survival or Death of scuticociliates (activity and shape, microscope) (scuticociliates [1]; Dosage 2000 ppm) | Survival or Death of scuticociliates (activity and shape, microscope) (scuticociliates [1]; Dosage 2500 ppm) | Survival or Death of scuticociliates (activity and shape, microscope) (scuticociliates [1]; Dosage 3000 ppm) | Survival or Death of scuticociliates (activity and shape, microscope) (scuticociliates [1]; Dosage 3500 ppm) | Survival or Death of scuticociliates (activity and shape, microscope) (scuticociliates [1]; Dosage 4000 ppm) | Survival or Death of scuticociliates (activity and shape, microscope) (scuticociliates [2]; Dosage 500 ppm) | Survival or Death of scuticociliates (activity and shape, microscope) (scuticociliates [2]; Dosage 1000 ppm) | Survival or Death of scuticociliates (activity and shape, microscope) (scuticociliates [2]; Dosage 1500 ppm) | Survival or Death of scuticociliates (activity and shape, microscope) (scuticociliates [2]; Dosage 2000 ppm) | Survival or Death of scuticociliates (activity and shape, microscope) (scuticociliates [2]; Dosage 2500 ppm) | Survival or Death of scuticociliates (activity and shape, microscope) (scuticociliates [2]; Dosage 3000 ppm) | Survival or Death of scuticociliates (activity and shape, microscope) (scuticociliates [2]; Dosage 3500 ppm) | Survival or Death of scuticociliates (activity and shape, microscope) (scuticociliates [2]; Dosage 4000 ppm) | Survival or Death of scuticociliates (activity and shape, microscope) (scuticociliates [1]; Dosage 1200 ppm) | Survival or Death of scuticociliates (activity and shape, microscope) (scuticociliates [1]; Dosage 1400 ppm) | Survival or Death of scuticociliates (activity and shape, microscope) (scuticociliates [2]; Dosage 700 ppm) | Survival or Death of scuticociliates (activity and shape, microscope) (scuticociliates [2]; Dosage 800 ppm) | also measured
1 | C1CNCCN1 [Piperazine] | Survival | Survival | Survival | Survival | Survival | Survival | Survival | Survival | Survival | Survival | Survival | Survival | Survival | Survival | Survival | Survival |  |  |  |  | 
2 | CC[C@H](C)[C@H]1O[C@]2(CC[C@@H]1C)C[C@@H]1C[C@@H](C/C=C(\C)[C@@H](O[C@H]3C[C@H](OC)[C@@H](O[C@H]4C[C@H](OC)[C@@H](O)[C@H](C)O4)[C@H](C)O3)[C@@H](C)/C=C/C=C3\CO[C@@H]4[C@H](O)C(C)=C[C@@H](C(=O)O1)[C@]34O)O2 [Ivermectin] | Survival | Survival | Survival | Survival | Survival | Survival | Survival | Survival | Survival | Survival | Survival | Survival | Survival | Survival | Survival | Survival |  |  |  |  | 
3 | Nc1cc(C(Cl)=C(Cl)Cl)c(S(N)(=O)=O)cc1S(N)(=O)=O [Clorsulon] | Survival | Survival | Death |  |  |  |  |  | Survival | Δ |  | Death |  |  |  | Death | Survival | Survival | Survival | Survival | Survival or Death of scuticociliates (activity and shape, microscope) (scuticociliates [1]; Dosage 50 ppm): Survival; Survival or Death of scuticociliates (activity and shape, microscope) (scuticociliates [1]; Dosage 250 ppm): Survival; Survival or Death of scuticociliates (activity and shape, microscope) (scuticociliates [2]; Dosage 900 ppm): Δ
4 | CC1(C)[C@H](C(=O)O[C@H](C#N)c2cccc(Oc3ccccc3)c2)[C@@H]1C=C(Br)Br [Deltamethrin] | Survival | Survival | Death |  |  |  |  |  | Survival | Δ |  | Death |  |  |  |  | Death | Death | Survival | Survival | Survival or Death of scuticociliates (activity and shape, microscope) (scuticociliates [1]; Dosage 250 ppm): Survival; Survival or Death of scuticociliates (activity and shape, microscope) (scuticociliates [2]; Dosage 600 ppm): Survival; Survival or Death of scuticociliates (activity and shape, microscope) (scuticociliates [2]; Dosage 900 ppm): Survival; Survival or Death of scuticociliates (activity and shape, microscope) (scuticociliates [2]; Dosage 5000 ppm): Death
5 | O=[N+]([O-])NC1=NCCN1Cc1ccc(Cl)nc1 [Imidacloprid] | Survival | Δ | Death | Death | Death |  |  |  | Survival | Δ |  | Death |  |  |  |  | Δ | Death | Survival | Survival | Survival or Death of scuticociliates (activity and shape, microscope) (scuticociliates [2]; Dosage 600 ppm): Survival; Survival or Death of scuticociliates (activity and shape, microscope) (scuticociliates [2]; Dosage 900 ppm): Δ; Survival or Death of scuticociliates (activity and shape, microscope) (scuticociliates [2]; Dosage 5000 ppm): Death
6 | c1ccc(C2CN3CCSC3=N2)cc1 (stereo not drawn) [Tetramisole] | Survival | Survival | Survival | Survival | Survival | Survival | Survival | Survival | Survival | Survival | Survival | Survival | Survival | Survival | Survival | Survival |  |  |  |  | 
7 | CCCOc1ccc2nc(NC(=O)OC)[nH]c2c1 [Oxibendazole] | Survival | Survival | Δ | Δ | Δ | Δ | Death | Death | Survival | Survival | Δ | Δ | Death | Death | Death | Death |  |  |  |  | 
8 | CN1CCCN=C1/C=C/c1cccs1 [Pyrantel] | Survival | Survival | Survival | Survival | Survival | Survival | Survival | Survival | Survival | Survival | Survival | Survival | Survival | Survival | Survival | Survival |  |  |  |  | 
